A word on the melting point: it is the temperature of the solid-liquid transition. For `CCCC[C@H](NC(=O)[C@H](CC(C)C)NC(=O)COc1ccc(Cl)cc1)C(=O)CSCc1ccco1`, the melting point is 66 to 67 °C.
In the case of `CC(C)(C)OC(=O)NNCCC12CC3CC(CC(C3)C1)C2` it was 73.5 to 81 °C; in that of `COc1ccc(C(CC(=O)O)N2C(=O)C3C=C(Cl)C(Cl)=C(Cl)C3(Cl)C2=O)cc1` (stereo not drawn), 236 to 238 °C; in that of `OC(C(=Cn1cncn1)c1ccc(Cl)cc1)c1ccccc1C(F)(F)F` (stereo not drawn), 161 °C.
In the case of `O=C(Nc1cnccn1)N1CCN(c2nc(-c3ccccc3)cs2)CC1` it was 134 to 135 °C.
`COc1cc(O)cc(CN2C(=O)N(c3cnn(Cc4c(C)noc4C)c3)C(=O)C2(C)C)c1` gave a melting point of 72 to 74 °C.
`C=CCOC(=O)c1cc(C23CC4CC(CC(C4)C2)C3)c(OC)cc1F`: the melting point lay in the range of 101 to 102 °C.
In the case of `CN(CCOc1ccc(CC2SC(=O)NC2=O)cc1)c1ncccn1` (stereo not drawn) it was 150 to 151 °C; in that of `O=[N+]([O-])CS(=O)(=O)c1ccc(O)cc1`, 93 to 95 °C; in that of `COc1ccc(-n2cnc(OC(C)C(=O)O)n2)cc1` (stereo not drawn), 155 to 157 °C.
As for `COc1cc(CO)cc(OC)c1OCCO`, the figure is 26 to 28 °C; as for `CCOC(=O)C(=O)N1CCN(c2ccccc2C(C)(C)C)CC1`, 95 to 98 °C; as for `COc1ccc(C2=CCN(Cc3ccccc3)CC2)cc1OC`, 94 to 96 °C.
In the case of `COc1ccc(OCC#CCCC(N)N2C(=O)c3ccccc3C2=O)cc1` (stereo not drawn) it was 51 to 53 °C.
Consider `CC(C)(C#N)CNC(=O)c1n[nH]cc1NC(=O)c1ccccn1`, for which the melting point was 238 to 240 °C.
As for `O=C(CN1C(=O)CSC1=O)c1ccc(Cl)cc1`, the figure is 122 to 124 °C.
In the case of `CCCCCCCCNC(=O)N=C(NC(=O)NCC)OC` it was 88 to 90 °C; in that of `O=C(O)c1ccc(NCCOc2ccc3ccccc3c2)cc1`, 208 to 211 °C.
With `Cc1nc(OCc2cccc(C(F)(F)F)c2)c(C(=O)Nc2ccccc2)s1`, the melting point worked out at 113 °C.
As for `CC1(C)Oc2ccc(C#N)cc2[C@@H](OC2=CC(=O)CC2)[C@@H]1O` (relative stereo), the figure is 154 to 156 °C.
As for `Cc1cc2c(cc1[N+](=O)[O-])C(=O)CC(C)O2` (stereo not drawn), the figure is 110 to 113 °C; as for `CCn1c(=O)n(O)c(=O)c2cc(F)c(F)cc21`, 172 to 174 °C.
In the case of `CCOc1cc(C(CS(C)(=O)=O)N2C(=O)c3cccc(NC(=O)COCc4ccccc4)c3C2=O)ccc1OC` (stereo not drawn) it was 154 to 156 °C; in that of `CC(C)(C)C(=O)c1c[nH]c2ncc(-n3ccc4ccccc43)nc12`, 205 to 207 °C; in that of `O=C(OC1CCCC1=O)c1ccccc1` (stereo not drawn), 87 to 88 °C.
As for `COc1ccc2ncc3c(c2c1)C(O)CCC3` (stereo not drawn), the melting point turned out to be 190 °C.
As for `CCn1c(=N)c(-c2ccc3ccccc3c2)cc2cnc(Nc3ccccc3)nc21`, the figure is 236 to 242 °C; as for `COc1ccc(NC(=O)c2ccc([N+](=O)[O-])cc2)cc1`, 200 °C.
In the case of `c1cc(C2CC(c3ccncn3)CC(c3ccncn3)C2)ncn1` (stereo not drawn) it was 126 to 128 °C; in that of `CC(C)CCOc1ccc(S(=O)(=O)C2(C(=O)NO)CCN(Cc3ccccc3)CC2)cc1`, 106 °C.
In the case of `NC(=S)Nc1c(Cl)cccc1Cl` it was 158 to 160 °C.
As to `CC(C)(C)C(=O)c1ccc(C(N)=O)cc1`, the melting point fell in the range of 138 to 140 °C.
As for `O=C(O)CN1C(=O)C(=Cc2ccc(O)cc2)SC1=S`, the figure is more than 300 °C; as for `Cn1c([N+](=O)[O-])cnc1-c1nc2ccccc2n1CCN1CCOCC1`, 237 °C; as for `COCCCCCC=C(NC(=O)C1CC1(C)C)C(=O)O` (stereo not drawn), 71 to 72 °C.
As for `CCOc1c(Nc2cc(C3C(C(=O)OC)=C(C)NC(C)=C3C(=O)OC)ccc2F)c(=O)c1=O`, the melting point was in the range of 203 to 205 °C.
Compound `O=C(c1oc2ccc(N3CCN(Cc4ccccc4)CC3)cc2c1Br)N(Cc1ccccc1)Cc1ccccc1` showed a melting point of 196 to 198 °C.
`O=[N+]([O-])C1=C2N(CC3CCOC3)CCN2C2CCCC1O2` (stereo not drawn) returned a melting point of 115 to 117 °C.
Take `Cc1ccc(S(=O)(=O)Cc2ccc(C(C)(C)N)cc2)cc1C`: the melting point is 129 to 130 °C.
In the case of `OC(CCl)(c1ccccc1)c1ccc(-c2ccccc2)cc1` (stereo not drawn) it was 94 °C; in that of `COc1ccc(CS(=O)(=O)CC(=O)O)cc1[N+](=O)[O-]`, 96 to 98 °C.
As for `CN(Cc1cc(C(F)(F)F)cc(C(F)(F)F)c1)C(=O)c1c(-c2ccc(F)cc2)c2ccc(=O)n(C)c2c(=O)n1C`, the figure is 210 to 212 °C; as for `O=[N+]([O-])c1ccc(C=Cc2nc(Cl)c3ccccc3n2)o1`, 252 to 254 °C.
As for `c1cc(-c2ccc3nncn3n2)cs1`, the figure is 189 to 192 °C; as for `CC1(C)N=C(c2ccccc2Cl)c2cc(N)ccc2-n2cnnc21`, 264 °C; as for `CC(=O)Nc1nc(C)c(S(=O)(=O)NCCO)s1`, 211 °C.
For the compound `CC(C)(C)c1cc(CNc2cccc(Br)c2CO)c(C(=O)O)s1`, the melting point is 68 to 69 °C.
`CCCCc1oc2ccccc2c1Cc1cc(I)c(OCCN(CC)CC)c(I)c1` showed a melting point of 80 to 81 °C.
Turning to `Cc1cc(C2(C(F)(F)F)CC(c3ccc(F)cc3)=NO2)ccc1NC(=O)OC(C)(C)C` (stereo not drawn), the melting point is 149 to 150 °C.
As for `CCCCS(=O)(=O)c1ccccc1C(=O)O`, the figure is 72.5 to 73.5 °C; as for `OCc1cc2cc(OCc3ccccc3)ccc2[nH]1`, 106 to 107 °C.
In the case of `COc1ccc2cc3c(Cl)nn(CC(C)N(C)C)c3nc2c1` (stereo not drawn) it was 78 to 79 °C.
As for `CC(Br)C(C)N1C(=O)C2(OCCCO2)c2cc(S(=O)(=O)N3CCCC3)ccc21` (stereo not drawn), the figure is 152 to 153 °C.
Regarding `CN1CCN(c2nc3c(c(N4CCOCC4)n2)SCCC3)CC1`, the melting point was found to be 100 °C.
In the case of `Nc1sc2c(c1C(=O)c1ccc3ccccc3c1)CCN(Cc1ccc(F)cc1)C2` it was 94 to 96 °C; in that of `COc1ccccc1N1CCN(C(=O)N(C)c2nc(C)c(C)nc2OC)CC1`, 140 to 142 °C; in that of `COC(=O)CCc1ccc(OCC2CCN(c3ccncc3)CC2)cc1`, 96.5 to 98.5 °C.
In the case of `CN(C(=O)C(C)(C)c1cc(C(C)(C)C)c(O)c(C(C)(C)C)c1)C1CC(C)(C)NC(C)(C)C1` it was 168 to 173 °C; in that of `c1cc(COc2cccc(-c3nnn[nH]3)c2)cc(OCc2ccc3ccccc3n2)c1`, 169 to 172 °C.
For `COc1cnc(C(=O)O)cc1OC1CCCC1`, the melting point was 184 to 185 °C.
`C[C@]12CCC(=O)C=C1CC[C@@H]1[C@@H]2CC[C@]2(C(F)F)C(=O)CC[C@@H]12`: the melting point is 183 to 184 °C.
In the case of `CNC(=O)N1N=C(c2ccc([N+](=O)[O-])c(C)c2)c2cc(Cl)ccc2C=C1C`, the melting point fell in the range of 196 to 198 °C.
As to `Cc1nnc(COc2cccc3c2CN(C2CCC(=O)NC2=O)C3=O)o1` (stereo not drawn), the melting point is 206 to 208 °C.
For `NS(=O)(=O)c1nnc(NC(=O)c2cnn3c(C(F)(F)F)cc(-c4ccc(C(F)(F)F)cc4)nc23)s1`, the melting point amounted to 280 °C.
As for `Cc1cc(=O)c(-c2ccc(Oc3ccc(C(F)(F)F)cc3)cc2)c(C)[nH]1`, the figure is 258 to 260 °C.
In the case of `C1=C2NCCN2C(c2ccccc2)c2ccccc2C1` (stereo not drawn) it was 200 to 201 °C; in that of `COCN(c1cccc2cc(C(=O)O)n(COC)c12)S(=O)(=O)c1cccs1`, 183 to 184 °C; in that of `CCCCCCCCCC(=O)c1ccc(Br)cc1F`, 31 to 32 °C.
`Cc1oc(-c2ccccc2)nc1CCOc1ccc(C=CC=C2OC(=O)NC2=O)cn1` returned a melting point of 204 to 205 °C.
In the case of `CC1CCc2c(N3CCN(C)CC3)c(F)cc3c(=O)c(C(=O)O)cn1c23` (stereo not drawn) it was 262 to 263 °C; in that of `COC(=O)c1cc(C(=O)c2cccc(F)c2)ccc1OC`, 140 °C; in that of `CCCCc1oc2ccc(C(=O)OC)cc2c1C(=O)c1ccc(OCCCNCC(C)(C)C)cc1`, 61 to 63 °C.
The compound `CCCCN(CCCC)c1ccc(C=CC=CC2=C(C#N)C(=C(C#N)C#N)OC2(C)C)c(OC)c1` came in with a melting point of 181 to 184 °C.
As for `CC1(C)CCC(C)(C)c2c(CO)cc(-c3ccccc3)cc21`, the figure is 80 to 82 °C; as for `OCCC#CC1CCC(COc2ccc(F)cc2)O1` (mixture of isomers), 76 °C; as for `Cc1ccccc1-c1nc2c3ccccc3ccn2c1N`, 151 to 153 °C.
In the case of `CCCc1c(OCCCOc2ccc3c(=O)cc(C(=O)O)oc3c2CCC)ccc(C(C)=O)c1O` it was 173 to 174 °C.
As for `O=C(C1CCCc2c1c1ccccc1n2Cc1ccccc1)N1CCN(c2ccccc2)CC1` (stereo not drawn), the figure is 273 to 274 °C; as for `Cc1ccccc1C(=O)CCc1c(C(=O)N2CCCC2)cc2c(nc(C)n2C)c1O`, 216 to 217 °C; as for `O=C1c2ccc(SCc3ccccc3)cc2CC1Br` (stereo not drawn), 88 °C.
Consider `Cc1ccc2c(c1)Sc1cc(C)ccc1O2`, for which the melting point lay within 69 to 70 °C.
In the case of `CN1Cc2c(-c3nc(CCl)cs3)ncn2-c2ccc(F)cc2C1=O` it was 239 to 241 °C; in that of `CNC(=S)Nc1ccccc1`, 113 °C; in that of `CC(C)(C)n1ncc(SCc2ccc(Cl)cc2)c(Cl)c1=O`, 142 to 143 °C.
In the case of `CCCSc1nc(C)c(CO)n1-c1ccccc1Cl` it was 98 to 101 °C; in that of `CCSc1ccc(C(=O)NCc2ccc3c(c2)C(=O)N(C2(C)CCC(=O)NC2=O)C3=O)nn1` (stereo not drawn), 160 to 162 °C.
Compound `COc1cc(C(=O)N2CCN(c3cccc(C)c3Cl)CC2)cc(OC)c1OC` registered a melting point of 156 to 159 °C.
As for `C=CCOc1cc(C(=O)O)cc([N+](=O)[O-])c1C(=O)c1ccccc1`, the figure is 192 to 193 °C.

Source of the values: a melting point compilation (Tetko et al.; mined from patent text by program, amines drawn as free bases though some values may be those of a salt).
